# Legend:
# coxsackievirus B3 (CVB3) = assay: Cell viability assay, prevention of cell death caused by CVB3 infection; format: cell-based; conditions: for Selectivity index: 50% Cytotoxic concentration/50% activity concentration; for IC50 / EC (peak activity): Enterovirus B; for IC50: read-out: 50% activity concentration (IC50); for EC (peak activity): HeLa-RW cells and CVB3 at low multiplicity of infection, read-out: Peak Activity Conc.
# Protocol: Procedure: Enteroviruses rapidly cause cell death, and a cell viability assay was used to examine the cytotoxicity of each compound and to identify the concentration needed to prevent cell death caused by coxsackievirus B3 (CVB3) infection.
# Compounds were diluted two-fold and added to wells of 384 well plate. HeLa-RW cells were then added (cytotoxicity testing), or cells and CVB3 were added to provide a low multiplicity of infection to determine concentration of peak activity or 50% maximal concentration. Selectivity index is defined as the 50% Cytotoxic concentration/50% activity concentration
# CVB3-H3 = assay: Plaque reduction assay, CVB3-H3 in HeLa-RW cells; format: cell-based, coxsackievirus B3; conditions: compound added 30 min before infection, CVB3-H3 MOI 1, HeLa-RW, 6 hours; log10(titer with DMSO only/titer with inhibitor)
# [1] = system: eGFP-expressing recombinant CVB3; format: cell-based, coxsackievirus B3; conditions: for % of eGFP + cells, 0 Hr: compound added 0 hr post infection at its peak activity concentration, DMSO 26.0; for % of eGFP + cells, 0 Hr / % of eGFP + cells, 1 Hr / % of eGFP + cells, 2 Hr: read 6 hr post infection; for % of eGFP + cells, 1 Hr: compound added 1 hr post infection at its peak activity concentration, DMSO 23.7; for % of eGFP + cells, 2 Hr: compound added 2 hr post infection at its peak activity concentration, DMSO 24.8; for Inhibition of infected cells: eGFP-CVB3 m.o.i=1, compound added at time of infection, 6 hr post infection, 1-(% eGFP+ cells with compound/% with DMSO only)
smiles,measurement,setting,value
"Cc1ccc(-c2cc(C(=O)NN)c3ccccc3n2)s1 [Compound 25, 2-(5-Methyl-2-thienyl)-4-quinoline-carbohydrazide]",Selectivity index,coxsackievirus B3 (CVB3),32
same,IC50,coxsackievirus B3 (CVB3),780 nM
same,EC (peak activity),coxsackievirus B3 (CVB3),3.13 µM
same,Log10 reduction of virus titer,CVB3-H3,3.7
same,"% of eGFP + cells, 0 Hr",[1],0.1%
same,"% of eGFP + cells, 1 Hr",[1],0.1%
same,"% of eGFP + cells, 2 Hr",[1],0.0%
same,Inhibition of infected cells,[1],100%
"Cl.OC(c1cc(C(F)(F)F)nc2c(C(F)(F)F)cccc12)C1CCCCN1 (centres unmarked) [Compound 22, [2,8-Bis (trifluoromethyl)-4-quinolinyl](2-piperidinyl)methanol hydrochloride (1:1), reference compound]",Selectivity index,coxsackievirus B3 (CVB3),6
same,IC50,coxsackievirus B3 (CVB3),1600 nM
same,EC (peak activity),coxsackievirus B3 (CVB3),3.13 µM
same,Log10 reduction of virus titer,CVB3-H3,4.0
same,"% of eGFP + cells, 0 Hr",[1],21.1%
same,"% of eGFP + cells, 1 Hr",[1],18.5%
same,"% of eGFP + cells, 2 Hr",[1],27.9%
same,Inhibition of infected cells,[1],100%
"O=C(c1ccc2c(c1)OCCO2)C1CCN(C(=O)c2ccc(-n3cccn3)cc2)CC1 [Compound 46, 2,3-Dihydro-1,4-benzodioxin-6-yl {1-[4-(1H-pyrazol-1-yl)benzoyl]-4-piperidinyl}methanone]",Log10 reduction of virus titer,CVB3-H3,1.3
same,Inhibition of infected cells,[1],82.6%
"Cc1ccc(NC(=O)c2cc(-c3cccs3)nc3c2cnn3C(C)C)cc1S(N)(=O)=O [Compound 9, 1-Isopropyl-N-(4-methyl-3-sulfamoylphenyl)-6-(2-thienyl)-1H-pyrazolo[3,4-b] pyridine-4-carboxamide]",Log10 reduction of virus titer,CVB3-H3,4.5
same,Inhibition of infected cells,[1],100%
"NNC(=O)c1cc(-c2ccccc2)nc2ccccc12 [Compound 26, 2-Phenyl-4-quinoline-carbohydrazide]",Log10 reduction of virus titer,CVB3-H3,2.5
same,Inhibition of infected cells,[1],98.7%
"COc1ccc2nc(C)n3c4ccccc4c(NC(C)=O)c3c2c1 [Compound 49, N-(2-Methoxy-6-methylindolo[1,2-c]quinazolin-12-yl)acetamide]",Log10 reduction of virus titer,CVB3-H3,1.0
same,Inhibition of infected cells,[1],17.2%
"CC/C(C)=N\NC(=O)c1cc(-c2cccs2)nc2ccccc12 [Compound 24, N′-[(2Z)-2-Butanylidene]-2-(2-thienyl)-4-quinoline-carbohydrazide]",Log10 reduction of virus titer,CVB3-H3,4.0
same,Inhibition of infected cells,[1],100%
"Cc1nc(-c2cccc(NS(=O)(=O)c3ccc4c(c3)CCC(=O)N4)c2)cs1 [Compound 38, N-[3-(2-Methyl-1,3-thiazol-4-yl)phenyl]-2-oxo-1,2,3,4-tetrahydro-6-quinoline-sulfonamide]",Log10 reduction of virus titer,CVB3-H3,0.9
same,Inhibition of infected cells,[1],59.1%
"CCn1ncc2c(C(=O)Nc3ccc(C)c(S(N)(=O)=O)c3)cc(-c3cccs3)nc21 [Compound 19, 1-Ethyl-N-(4-methyl-3-sulfamoylphenyl)-6-(2-thienyl)-1H-pyrazolo[3,4-b] pyridine-4-carboxamide]",Log10 reduction of virus titer,CVB3-H3,4.3
same,Inhibition of infected cells,[1],100%
"Cc1ccc(NC(=O)c2cc(-c3cccs3)nc3c2cnn3C(C)C)c(F)c1 [Compound 5, N-(2-Fluoro-4-methylphenyl)-1-isopropyl-6-(2-thienyl)-1H-pyrazolo[3,4-b] pyridine-4-carboxamide]",Log10 reduction of virus titer,CVB3-H3,4.4
same,Inhibition of infected cells,[1],99.3%
"CCCSc1nc2ccccc2c(=O)n1Cc1ccccc1 [Compound 47, 3-Benzyl-2-(propylsulfanyl)-4(3H)-quinazolinone]",Log10 reduction of virus titer,CVB3-H3,4.1
same,Inhibition of infected cells,[1],100%
"O=C(Nc1nc(CN2CCOCC2)cs1)c1cc(-c2ccc(Cl)s2)nc2ccccc12 [Compound 34, 2-(5-Chloro-2-thienyl)-N-[4-(4-morpholinylmethyl)-1,3-thiazol-2-yl]-4-quinoline-carboxamide]",Log10 reduction of virus titer,CVB3-H3,3.5
same,Inhibition of infected cells,[1],94.4%
"O=C(O)c1cccc(NS(=O)(=O)c2ccc(-c3ccccc3)cc2)c1 [Compound 56, 3-[(4-Biphenylylsulfonyl)amino] benzoic acid]",Log10 reduction of virus titer,CVB3-H3,0.3
same,Inhibition of infected cells,[1],85.4%
"CCN(CC)CCNC1CCCc2c1[nH]c1ccc(C)cc21.Cl (centres unmarked) [Compound 66, N,N-Diethyl-2-[(6-methyl-2,3,4,9-tetrahydro-1H-carbazol-1-yl)amino] ethanaminium chloride]",Log10 reduction of virus titer,CVB3-H3,4.4
same,Inhibition of infected cells,[1],99.6%
"CC(C)n1ncc2c(C(=O)Nc3ccc(F)cc3Cl)cc(-c3cccs3)nc21 [Compound 6, N-(2-Chloro-4-fluorophenyl)-1-isopropyl-6-(2-thienyl)-1H-pyrazolo[3,4-b] pyridine-4-carboxamide]",Log10 reduction of virus titer,CVB3-H3,4.3
same,Inhibition of infected cells,[1],99.5%
"OC(c1ccccc1)c1nc2ccccc2n1-c1ccccc1 (centres unmarked) [Compound 41, Phenyl(1-phenyl-1H-benzimidazol-2-yl)methanol]",Log10 reduction of virus titer,CVB3-H3,4.1
same,Inhibition of infected cells,[1],100%
"Cc1ccc(S(C)(=O)=O)cc1NC(=O)c1cc(C2CC2)nc2c1cnn2C(C)C [Compound 12, 6-Cyclopropyl-1-isopropyl-N-[2-methyl-5-(methylsulfonyl)phenyl]-1H-pyrazolo[3,4-b] pyridine-4-carboxamide]",Log10 reduction of virus titer,CVB3-H3,4.2
same,Inhibition of infected cells,[1],100%
"CCCCNCC(=O)Nc1ccccc1N1CCCCC1 [Compound 65, N^2-Butyl-N-[2-(1-piperidinyl)phenyl] glycinamide]",Log10 reduction of virus titer,CVB3-H3,−0.4
same,Inhibition of infected cells,[1],36.2%
"CC(C)c1cc(C(=O)Nc2ccccc2N2CCN(C)CC2)c2cnn(C(C)C)c2n1 [Compound 15, 1,6-Diisopropyl-N-[2-(4-methyl-1-piperazinyl)phenyl)-1H-pyrazolo[3,4-b]pyridine-4-carboxamide]",Log10 reduction of virus titer,CVB3-H3,2.4
same,Inhibition of infected cells,[1],100%
"COc1ccc(NC(=O)c2nn(Cc3ccccc3)c(=O)c3ccccc23)cn1 [Compound 64, 3-Benzyl-N-(6-methoxy-3-pyridinyl)-4-oxo-3,4-dihydro-1-phthalazine-carboxamide]",Log10 reduction of virus titer,CVB3-H3,4.2
same,Inhibition of infected cells,[1],100%
"COc1ccc(CCC2CCN(Cc3cc(=O)n4ccccc4n3)CC2)cc1 [Compound 52, 2-({4-[2-(4-Methoxyphenyl)ethyl]-1-piperidinyl}methyl)-4H-pyrido[1,2-a]pyrimidin-4-one]",Log10 reduction of virus titer,CVB3-H3,0.0
same,Inhibition of infected cells,[1],57.7%
"c1ccc2[nH]c(CN3CCCC3)nc2c1 [Compound 40, 2-(1-Pyrrolidinylmethyl)-1H-benzimidazole]",Log10 reduction of virus titer,CVB3-H3,4.0
same,Inhibition of infected cells,[1],100%
"Cc1ccc(NC(=O)c2cc(C3CC3)nc3c2cnn3C(C)C)cc1S(N)(=O)=O [Compound 11, 6-Cyclopropyl-1-isopropyl-N-(4-methyl-3-sulfamoylphenyl)-1H-pyrazolo[3,4-b]pyridine-4-carboxamide]",Log10 reduction of virus titer,CVB3-H3,4.1
same,Inhibition of infected cells,[1],99.6%
"COc1cccc(NC(=O)c2cc(-c3cccs3)nc3c2cnn3C(C)C)c1 [Compound 8, 1-Isopropyl-N-(3-methoxyphenyl)-6-(2-thienyl)-1H-pyrazolo [3,4-b]pyridine-4-carboxamide]",Log10 reduction of virus titer,CVB3-H3,4.4
same,Inhibition of infected cells,[1],99.2%
"CC(C)c1cc(C(=O)Nc2cccc(N3CCCC3=O)c2)c2cnn(C(C)C)c2n1 [Compound 18, 1,6-Diisopropyl-N-[3-(2-oxo-1-pyrrolidinyl)phenyl]-1H-pyrazolo[3,4-b]pyridine-4-carboxamide]",Log10 reduction of virus titer,CVB3-H3,4.0
same,Inhibition of infected cells,[1],97.9%
"CC(C)n1ncc2c(C(=O)Nc3cccc(S(C)(=O)=O)c3)cc(-c3cccs3)nc21 [Compound 10, 1-lsopropyl-N-[3-(methylsulfonyl)phenyl]-6-(2-thienyl)-1H-pyrazolo [3,4-b]pyridine-4-carboxamide]",Log10 reduction of virus titer,CVB3-H3,4.4
same,Inhibition of infected cells,[1],100%
"Cc1ccc2nc(N3CCN(Cc4nnnn4Cc4ccccc4)CC3)c(C#N)cc2c1 [Compound 36, 2-{4-[(1-Benzyl-1H-tetrazol-5-yl)methyl]-1-piperazinyl}-6-methyl-3-quinoline-carbonitnle]",Log10 reduction of virus titer,CVB3-H3,1.0
same,Inhibition of infected cells,[1],79.7%
"Cc1cc(F)ccc1NC(=O)c1cc(-c2cccs2)nc2c1cnn2C(C)C [Compound 4, N-(4-Fluoro-2-methylphenyl)-1-isopropyl-6-(2-thienyl)-1H-pyrazolo[3,4-b] pyridine-4-carboxamide]",Log10 reduction of virus titer,CVB3-H3,4.5
same,Inhibition of infected cells,[1],100%
"COc1ccc(-c2csc3ncn(CC(=O)c4ccc5c(c4)OCO5)c(=O)c23)cc1OC [Compound 54, 3-[2-(1,3-Benzodioxol-5-yl)-2-oxoethyl]-5-(3,4-dimethoxyphenyl) thieno[2,3-d]pyrimidin-4 (3H)-one]",Log10 reduction of virus titer,CVB3-H3,3.2
same,Inhibition of infected cells,[1],87.6%
"CC1Oc2ccc(NC(=O)c3cc(-c4cccs4)nc4ccccc34)cc2NC1=O (centres unmarked) [Compound 30, N-(2-Methyl-3-oxo-3,4-dihydro-2H-1,4-benzoxazin-6-yl)-2-(2-thienyl)-4-quinolinecarboxamide]",Log10 reduction of virus titer,CVB3-H3,4.1
same,Inhibition of infected cells,[1],100%
"CC(=O)c1c(C)nc2ccc(Cl)cc2c1-c1ccccc1 [Compound 31, 1-(6-Chloro-2-methyl-4-phenyl-3-quinolinyl)ethanone]",Log10 reduction of virus titer,CVB3-H3,3.8
same,Inhibition of infected cells,[1],94.5%
